Measured values as given in US8883782B2, “Spiro-tetracyclic ring compounds as beta-secretase modulators and methods of use” (Amgen Inc., priority 2010, dated 2014).
Like-named read-outs stand apart in the source and are kept apart here.

What was measured:
[1] = target: Beta Secretase enzyme (BACE) (Homo sapiens, UniProt P56817); assay: In vitro enzymatic BACE FRET (fluorescence resonance energy transfer) assay; assay type: biochemical; details: average IC50, enzyme assay; read-out: BACE 1 FRET assay
Chain of Beta Secretase enzyme (BACE) (P56817 46-501, species assumed): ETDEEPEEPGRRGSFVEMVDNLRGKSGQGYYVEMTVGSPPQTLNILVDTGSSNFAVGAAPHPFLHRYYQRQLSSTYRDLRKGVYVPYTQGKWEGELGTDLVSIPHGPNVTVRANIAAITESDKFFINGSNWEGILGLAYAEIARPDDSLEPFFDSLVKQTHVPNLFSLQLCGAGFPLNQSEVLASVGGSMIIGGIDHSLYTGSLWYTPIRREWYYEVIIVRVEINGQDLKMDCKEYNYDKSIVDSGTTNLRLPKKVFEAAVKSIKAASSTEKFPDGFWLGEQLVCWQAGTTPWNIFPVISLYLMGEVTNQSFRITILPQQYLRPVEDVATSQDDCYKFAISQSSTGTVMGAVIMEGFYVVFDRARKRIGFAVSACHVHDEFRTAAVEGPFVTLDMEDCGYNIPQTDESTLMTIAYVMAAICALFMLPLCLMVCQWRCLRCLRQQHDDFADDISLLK
In short: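 Fluorescence read after Tris quench to neutral pH. Reaction: 50 nM fluorophore/quencher peptide substrate, 1 h, in 0.05 M acetate pH 4.2, 10% DMSO final, 100 uM genapol.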

[2] = tested on: Aβ40 in conditioned medium of cells stably expressing Amyloid Precursor Protein (APP); assay: In vitro BACE cell-based assay (Aβ40 in conditioned medium, sandwich ELISA); details: read-out: HEK cell assay
In short: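 Conditioned medium from stably APP-expressing cells treated with compound dose series is assayed for Aβ40 by sandwich ELISA with time-resolved fluorescence detection. IC50 is calculated from percent inhibition of Aβ40 against compound concentration.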

[3] = Homo sapiens, HEK293, average IC50, HEK cells
[4] = Homo sapiens, HEK293, average IC50

Structure (SMILES)	IC50 [1]	IC50 [2, 3]	IC50 [2, 4]	IC50 [2]
COc1ncc(-c2cc3c(cn2)Oc2ccc(-c4cccnc4F)cc2[C@@]32COC(N)=N2)cc1F [Example 570, (5S)-3-(5-fluoro-6-methoxy-3-pyridinyl)-7-(2-fluoro-3-pyridinyl)spiro[chromeno[2,3-c]pyridine-5,4′-[1,3]oxazol]-2′-amine]	2 nM	31 nM	–	–
Cn1cc(-c2cc3c(cc2F)Oc2ccc(-c4cccc(Cl)c4)cc2[C@@]32COC(N)=N2)cn1 [Example 313, (4S)-7′-(3-chlorophenyl)-3′-fluoro-2′-(1-methyl-1H-pyrazol-4-yl)spiro[1,3-oxazole-4,9′-xanthen]-2-amine]	1.8 nM	–	78.9 nM	–
Cc1cc(-c2cc3c(c(F)n2)Oc2ccc(-c4cccnc4F)cc2[C@]32CSC(N)=N2)ccn1 (racemic) [Example 1032, (5R)-1-fluoro-7-(2-fluoro-3-pyridinyl)-3-(2-methyl-4-pyridinyl)spiro[chromeno[2,3-c]pyridine-5,4′-[1,3]thiazol]-2′-amine, (5S)-1-fluoro-7-(2-fluoro-3-pyridinyl)-3-(2-methyl-4-pyridinyl)spiro[chromeno[2,3-c]pyridine-5,4′-[1,3]thiazol]-2′-amine]	0.4 nM	–	–	3 nM
COc1ncccc1-c1ccc2c(c1)[C@@]1(COC(N)=N1)c1cc(-c3ccnc(F)c3)ncc1O2 [Example 239, (5S)-3-(2-fluoro-4-pyridinyl)-7-(2-methoxy-3-pyridinyl)spiro[chromeno[2,3-c]pyridine-5,4′-[1,3]oxazol]-2′-amine]	33.5 nM	–	389 nM	–
COc1cc2c(c(F)c1F)Oc1ccc(Br)cc1[C@@]21COC(N)=N1 [Example 1003, (4S)-7′-bromo-3′,4′-difluoro-2′-methoxyspiro[1,3-oxazole-4,9′-xanthen]-2-amine]	1090 nM	–	≥ 10000 nM	–
NC1=N[C@@]2(CS1)c1cc(-c3cccnc3F)ccc1Oc1c2cc(C2=CCCCO2)nc1F [Example 1026, (5S)-3-(3,4-dihydro-2H-pyran-6-yl)-1-fluoro-7-(2-fluoro-3-pyridinyl)spiro[chromeno[2,3-c]pyridine-5,4′-[1,3]thiazol]-2′-amine]	0.2 nM	–	11 nM	–
CC1(C)CC(c2cc3c(cn2)Oc2ccc(-c4ccc(F)nc4)cc2[C@@]32COC(N)=N2)=CCO1 [Example 370, (5S)-3-(2,2-dimethyl-3,6-dihydro-2H-pyran-4-yl)-7-(6-fluoro-3-pyridinyl)spiro[chromeno[2,3-c]pyridine-5,4′-[1,3]oxazol]-2′-amine]	3.6 nM	–	23.7 nM	–
CC(C)(C#N)COc1cc(F)c2c(c1)[C@]1(COC(N)=N1)c1cc(-c3ccc(F)nc3)ccc1O2 [Example 263, 3-(((4S)-2-amino-4′-fluoro-7′-(6-fluoro-3-pyridinyl)spiro[1,3-oxazole-4,9′-xanthen]-2′-yl)oxy)-2,2-dimethylpropanenitrile]	2.3 nM	–	13.3 nM	–
CC1(/C=C/c2cnc3c(c2)[C@]2(COC(N)=N2)c2cc(-c4cc(Cl)ccc4F)ccc2O3)COC1 [Example 177, (5S)-7-(5-chloro-2-fluorophenyl)-3-((E)-2-(3-methyl-3-oxetanyl)ethenyl)spiro[chromeno[2,3-b]pyridine-5,4′-[1,3]oxazol]-2′-amine]	0.4 nM	–	1.8 nM	–
CC1(C#Cc2cc3c(nc2F)Oc2ccc(-c4cncc(F)c4)cc2[C@@]32COC(N)=N2)COC1 [Example 907, (5S)-2-fluoro-7-(5-fluoro-3-pyridinyl)-3-((3-methyl-3-oxetanyl)ethynyl)spiro[chromeno[2,3-b]pyridine-5,4′-[1,3]oxazol]-2′-amine]	1.1 nM	23 nM	–	–
